The values below come from patent US10173991B2, “Sulfone amide linked benzothiazole inhibitors of endothelial lipase” (BRISTOL-MYERS SQUIBB COMPANY, priority 2014, dated 2019).

pIC50: −log10 of the molar value.

Sequence of Endothelial lipase (EL) (Q9Y5X9 21-500): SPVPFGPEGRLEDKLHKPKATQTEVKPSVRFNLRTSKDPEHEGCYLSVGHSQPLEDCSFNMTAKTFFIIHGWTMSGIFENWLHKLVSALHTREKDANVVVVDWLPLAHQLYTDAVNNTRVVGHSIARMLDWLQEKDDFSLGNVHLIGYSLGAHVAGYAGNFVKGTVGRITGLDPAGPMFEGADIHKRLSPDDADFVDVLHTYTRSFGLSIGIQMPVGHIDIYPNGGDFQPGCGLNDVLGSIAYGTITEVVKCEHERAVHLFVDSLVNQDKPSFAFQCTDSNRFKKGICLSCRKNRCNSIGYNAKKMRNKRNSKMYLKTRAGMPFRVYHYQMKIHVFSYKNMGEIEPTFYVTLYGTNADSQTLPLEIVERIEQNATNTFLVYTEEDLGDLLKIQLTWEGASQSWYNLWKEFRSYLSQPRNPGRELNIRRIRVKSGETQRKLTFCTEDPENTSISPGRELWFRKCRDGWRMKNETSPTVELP

The experiment addresses Endothelial lipase (EL) (Homo sapiens (Human), UniProt Q9Y5X9). The experiment can be described thus: Endothelial lipase (EL) enzymatic assay with fluorescent substrate A10070 in DMPG vesicles. It is filed as biochemical. An outline of the steps: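 Compounds were preincubated with enzyme for 30 min at 37° C before FRET-substrate vesicles (A10070 in DMPG, 0.11 mole fraction) were added. Reaction rates were obtained from the 300–900 sec slope of fluorescence at 490/530 nm.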
The pIC50 is −log10 of the IC50, conventionally taken in molar units. High values mean a small IC50, low ones a large IC50. Compound `Cn1ccc(-c2ccc3sc(C(C(=O)NCC(=O)NC4CC4)S(=O)(=O)c4ccccc4)nc3c2)cc1=O` (stereo not drawn) [Example 439, 2-(benzenesulfonyl)-N-[(cyclopropyl-carbamoyl)methyl]-2-[5-(1-methyl-2-oxo-1,2-dihydropyridin-4-yl)-1,3-benzothiazol-2-yl]acetamide] had a pIC50 of 7.32. In the case of `O=C(CNC(=O)C(c1nc2cc(F)c(-c3cncnc3)cc2s1)S(=O)(=O)c1ccccc1F)NC1CC1` (stereo not drawn) [Example 441, N-[(cyclopropyl-carbamoyl)methyl]-2-[5-fluoro-6-(pyrimidin-5-yl)-1,3-benzothiazol-2-yl]-2-(2-fluorobenzene-sulfonyl)acetamide] it was 7.06; in that of `CC(=O)NCc1ccc(-c2cc3sc(C(C(=O)NCC(=O)NC4CC4)S(=O)(=O)c4ccc(F)c(F)c4)nc3cc2F)cc1` (stereo not drawn) [Example 442, N-[(cyclopropyl-carbamoyl)methyl]-2-(3,4-difluorobenzene-sulfonyl)-2-{6-[4-(acetamidomethyl)phenyl]-5-fluoro-1,3-benzothiazol-2-yl}acetamide], 8.00; in that of `Cc1cc(-c2cc3sc(C(C(=O)NCC(=O)NC4CC4)S(=O)(=O)c4cccc(Cl)c4)nc3cc2F)cnn1` (stereo not drawn) [Example 443, 2-(3-chlorobenzene-sulfonyl)-N-[(cyclopropyl-carbamoyl)methyl]-2-[5-fluoro-6-(6-methylpyridazin-4-yl)-1,3-benzothiazol-2-yl}acetamide], 7.43.

`CC(=O)NCc1ccc(-c2cc3sc(C(C(=O)NCC(=O)NC4CC4)S(=O)(=O)c4cccc(Cl)c4)nc3cc2F)cc1` (stereo not drawn) [Example 444, 2-(3-chlorobenzene-sulfonyl)-N-[(cyclopropyl-carbamoyl)methyl]-2-{6-[4-(acetamidomethyl)phenyl]-5-fluoro-1,3-benzothiazol-2-yl}acetamide] gave a pIC50 of 8.30. This pIC50 lies 0.87 log units higher than the previous one. The figure for `O=C(CNC(=O)C(c1nc2cc(F)c(-c3cncnc3)cc2s1)S(=O)(=O)c1ccc(F)c(F)c1)NC1CC1` (stereo not drawn) [Example 445, N-[(cyclopropyl-carbamoyl)methyl]-2-(3,4-difluorobenzene-sulfonyl)-2-[5-fluoro-6-(pyrimidin-5-yl)-1,3-benzothiazol-2-yl]acetamide] is 7.23; for `O=C(CNC(=O)C(c1nc2cc(F)c(-c3cncnc3)cc2s1)S(=O)(=O)c1cccc(-c2cncnc2)c1)NC1CC1` (stereo not drawn) [Example 446, N-[(cyclopropyl-carbamoyl)methyl]-2-[5-fluoro-6-(pyrimidin-5-yl)-1,3-benzothiazol-2-yl]-2-[3-(pyrimidin-5-yl)benzenesulfonyl] acetamide] it is 7.11. In turn, `O=C(CNC(=O)C(c1nc2ccc(-c3ccc4c(c3)CNC4=O)cc2s1)S(=O)(=O)c1ccc(F)cc1)NC1CC1` (stereo not drawn) [Example 447, N-[(cyclopropyl-carbamoyl)methyl]-2-(4-fluorobenzene-sulfonyl)-2-[6-(1-oxo-2,3-dihydro-1H-isoindol-5-yl)-1,3-benzothiazol-2-yl}acetamide] had a negative logarithm of the IC50 (pIC50) of 8.05. Turning to `O=C(CNC(=O)C(c1nc2ccc(-c3ccc(C(=O)N4CCOCC4)cc3)cc2s1)S(=O)(=O)c1ccc(F)cc1)NC1CC1` (stereo not drawn) [Example 448, N-[(cyclopropyl-carbamoyl)methyl]-2-(4-fluorobenzene-sulfonyl)-2-{6-[4-(morpholine-4-carbonyl)phenyl]-1,3-benzothiazol-2-yl}acetamide], the pIC50 is 8.00. Compound `O=C(CNC(=O)C(c1nc2ccc(-c3ccccc3)cc2s1)S(=O)(=O)c1ccc(F)cc1)NC1CC1` (stereo not drawn) [Example 449, N-[(cyclopropyl-carbamoyl)methyl]-2-(4-fluorobenzene-sulfonyl)-2-(6-phenyl-1,3-benzothiazol-2-yl)acetamide] showed a pIC50 of 7.80. In the case of `COCCNC(=O)c1ccc(-c2ccc3nc(C(C(=O)NCC(=O)NC4CC4)S(=O)(=O)c4ccc(F)cc4)sc3c2)cc1` (stereo not drawn) [Example 450, 4-[2-({[(cyclopropyl-carbamoyl)methyl]carbamoyl}(4-fluorobenzene-sulfonyl)methyl)-1,3-benzothiazol-6-yl]-N-(2-methoxyethyl) benzamide] it was 7.72. The figure for `O=C(CNC(=O)C(c1nc2ccc(-c3ccc4c(c3)C(=O)NC4)cc2s1)S(=O)(=O)c1ccc(F)cc1)NC1CC1` (stereo not drawn) [Example 451, N-[(cyclopropyl-carbamoyl)methyl]-2-(4-fluorobenzene-sulfonyl)-2-[6-(3-oxo-2,3-dihydro-1H-isoindol-5-yl)-1,3-benzothiazol-2-yl}acetamide] is 7.41; for `Cc1ncc(-c2ccc3nc(C(C(=O)NCC(=O)NC4CC4)S(=O)(=O)c4ccc(F)cc4)sc3c2)cn1` (stereo not drawn) [Example 452, N-[(cyclopropyl-carbamoyl)methyl]-2-(4-fluorobenzene-sulfonyl)-2-[6-(2-methylpyrimidin-5-yl)-1,3-benzothiazol-2-yl]acetamide] it is 7.41.

In turn, `O=C1Cc2ccc(-c3ccc4nc(C(C(=O)NCC(=O)NC5CC5)S(=O)(=O)c5ccc(F)cc5)sc4c3)cc2N1` (stereo not drawn) [Example 453, N-[(cyclopropyl-carbamoyl)methyl]-2-(4-fluorobenzene-sulfonyl)-2-[6-(2-oxo-2,3-dihydro-1H-indol-6-yl)-1,3-benzothiazol-2-yl]acetamide] had a pIC50 of 7.17.

Compound `COc1cc(-c2ccc3nc(C(C(=O)NCC(=O)NC4CC4)S(=O)(=O)c4ccc(F)cc4)sc3c2)ccn1` (stereo not drawn) [Example 454, N-[(cyclopropyl-carbamoyl)methyl]-2-(4-fluorobenzene-sulfonyl)-2-[6-(2-methoxypyridin-4-yl)-1,3-benzothiazol-2-yl]acetamide] gave a pIC50 of 7.14. The pIC50 values of the last two compounds are within 0.2 log units of each other.

`CC(C)OCCNC(=O)CNC(=O)C(c1nc2ccc(-c3ccc(F)nc3)cc2s1)S(=O)(=O)c1ccc(F)cc1` (stereo not drawn) [Example 455, 2-(4-fluorobenzene-sulfonyl)-2-[6-(6-fluoropyridin-3-yl)-1,3-benzothiazol-2-yl]-N-({[2-(propan-2-yloxy)ethyl]carbamoyl}methyl)acetamide]: the pIC50 is 7.00. This pIC50 and that of the compound before are within 0.2 log units of each other. The figure for `COc1ccc(-c2ccc3nc(C(C(=O)NCC(=O)NC4CC4)S(=O)(=O)c4ccc(F)cc4)sc3c2)cn1` (stereo not drawn) [Example 456, N-[(cyclopropyl-carbamoyl)methyl]-2-(4-fluorobenzene-sulfonyl)-2-[6-(6-methoxypyridin-3-yl)-1,3-benzothiazol-2-yl]acetamide] is 6.96; for `O=C(CNC(=O)C(c1nc2ccc(-c3ccc(F)nc3)cc2s1)S(=O)(=O)c1ccc(F)cc1)NC1CC1` (stereo not drawn) [Example 457, N-[(cyclopropyl-carbamoyl)methyl]-2-(4-fluorobenzene-sulfonyl)-2-[6-(6-fluoropyridin-3-yl)-1,3-benzothiazol-2-yl]acetamide] it is 7.62; for `Cn1ccc(-c2ccc3nc(C(C(=O)NCC(=O)NC4CC4)S(=O)(=O)c4ccc(F)cc4)sc3c2)cc1=O` (stereo not drawn) [Example 458, N-[(cyclopropyl-carbamoyl)methyl]-2-(4-fluorobenzene-sulfonyl)-2-[6-(1-methyl-2-oxo-1,2-dihydropyridin-4-yl)-1,3-benzothiazol-2-yl]acetamide] it is 7.49.

`Cn1nccc1-c1ccc2nc(C(C(=O)NCC(=O)NC3CC3)S(=O)(=O)c3ccc(F)cc3)sc2c1` (stereo not drawn) [Example 459, N-[(cyclopropyl-carbamoyl)methyl]-2-(4-fluorobenzene-sulfonyl)-2-[6-(1-methyl-1H-pyrazol-5-yl)-1,3-benzothiazol-2-yl]acetamide] had a pIC50 of 7.74. Consider `O=C(CNC(=O)C(c1nc2ccc(-c3cncnc3)cc2s1)S(=O)(=O)c1ccc(F)cc1)NC1CC1` (stereo not drawn) [Example 460, N-[(cyclopropyl-carbamoyl)methyl]-2-(4-fluorobenzene-sulfonyl)-2-[6-(pyrimidin-5-yl)-1,3-benzothiazol-2-yl]acetamide], for which the pIC50 is 7.33. Compared with the last compound, the pIC50 is 0.41 log units lower. In the case of `COCCNC(=O)CNC(=O)C(c1nc2ccc(-c3ccc(F)nc3)cc2s1)S(=O)(=O)c1ccc(F)cc1` (stereo not drawn) [Example 461, 2-(4-fluorobenzene-sulfonyl)-2-[6-(6-fluoropyridin-3-yl)-1,3-benzothiazol-2-yl]-N-{[(2-methoxyethyl)carbamoyl]methyl} acetamide] it was 6.82. The figure for `COCCNC(=O)CNC(=O)C(c1nc2ccc(-c3ccc(C(=O)NCCOC)cc3)cc2s1)S(=O)(=O)c1ccc(F)cc1` (stereo not drawn) [Example 462, 4-{2-[(4-fluorobenzene-sulfonyl)({[(2-methoxyethyl)carbamoyl]methyl}carbamoyl)methyl]-1,3-benzothiazol-6-yl}-N-(2-methoxyethyl) benzamide] is 8.40. The figure for `COCCNC(=O)CNC(=O)C(c1nc2ccc(-c3ccn(C)c(=O)c3)cc2s1)S(=O)(=O)c1ccc(F)cc1` (stereo not drawn) [Example 463, 2-(4-fluorobenze-nesulfonyl)-N-{[(2-methoxyethyl)carbamoyl]methyl}-2-[6-(1-methyl-2-oxo-1,2-dihydropyridin-4-yl)-1,3-benzothiazol-2-yl]acetamide] is 7.62; for `CC(C)OCCNC(=O)CNC(=O)C(c1nc2ccc(-c3ccn(C)c(=O)c3)cc2s1)S(=O)(=O)c1ccc(F)cc1` (stereo not drawn) [Example 464, 2-(4-fluorobenzene-sulfonyl)-2-[6-(1-methyl-2-oxo-1,2-dihydropyridin-4-yl)-1,3-benzothiazol-2-yl]-N-({[2-(propan-2-yloxy)ethyl]carbamoyl}methyl)acetamide] it is 7.35; for `CC(C)OCCNC(=O)CNC(=O)C(c1nc2cc(F)cc(-c3ccc(F)nc3)c2s1)S(=O)(=O)c1ccc(F)cc1` (stereo not drawn) [Example 465, 2-[5-fluoro-7-(6-fluoropyridin-3-yl)-1,3-benzothiazol-2-yl]-2-(4-fluorobenzene-sulfonyl)-N-({[2-(propan-2-yloxy)ethyl]carbamoyl}methyl)acetamide] it is 7.28. For `CC(C)OCCNC(=O)CNC(=O)C(c1nc2cc(F)cc(-c3cnc(C4CC4)nc3)c2s1)S(=O)(=O)c1ccc(F)cc1` (stereo not drawn) [Example 466, 2-[7-(2-cyclopropyl-pyrimidin-5-yl)-5-fluoro-1,3-benzothiazol-2-yl]-2-(4-fluorobenzene-sulfonyl)-N-({[2-(propan-2-yloxy)ethyl]carbamoyl}methyl)acetamide], the pIC50 was 6.80. This pIC50 lies 0.48 log units lower than the previous one.
